Where “and” joins values, the source holds several entries; their conditions need not be identical. Equal values may be shown once.
Columns and labels:
Experiment in all cases: EDTA salt dilution test, MIC/MBC
Assay type in all cases: cell-based
[1] = test system: Ent. faeculm; conditions: for MIC, minimum concentration required to inhibit growth: Ent. faecuim, Exhibit A2; for MBC, minimum concentration required to kill an entire population: Ent. faeculm, Exhibit A1
[2] = test system: Acinetobacter baumanii; conditions: two entries, Exhibit A1
[3] = test system: Kleb. ornitholytica; conditions: for MBC, minimum concentration required to kill an entire population: Exhibit A1; for MIC, minimum concentration required to inhibit growth: Exhibit A2
[4] = test system: Cornyeform amycolatum; conditions: for MBC, minimum concentration required to kill an entire population: Exhibit A1; for MIC, minimum concentration required to inhibit growth: Exhibit A2
[5] = test system: Kleb. oxytoca; conditions: for MBC, minimum concentration required to kill an entire population: Exhibit A1; for MIC, minimum concentration required to inhibit growth: Exhibit A2
[6] = test system: Coryneform strait/amy; conditions: for MBC, minimum concentration required to kill an entire population: Exhibit A1; for MIC, minimum concentration required to inhibit growth: Exhibit A2
[7] = test system: Steno. maltophilia; conditions: for MBC, minimum concentration required to kill an entire population: Exhibit A1; for MIC, minimum concentration required to inhibit growth: Exhibit A2
[8] = test system: S. simulans; conditions: for MBC, minimum concentration required to kill an entire population: Exhibit A1; for MIC, minimum concentration required to inhibit growth: Exhibit A2
Description: (§1) Protocol one: Broth dilutions:
(§2) Inoculate a 25 ml nutrient broth (Oxoid No2) in a sterile universal container with one of the following organisms; Pseudomonas aeruginosa, Proteus Mirabilis, E. coli, Klebsiella pneumoniae, Staph aureus, Coagulase negative staphylococci, Enterococcus faecalis or MRSA.
(§3) Incubate the broth at 37° C. overnight.
(§4) To make these concentrations put the EDTA needed for 10 mLs in only 9 mLs of broth in sterile universal containers, as this will be diluted further when the organisms are added.
(§5) Dilute the overnight broth cultures to 10^7 organisms/mL using more sterile nutrient broth.
(§6) Add 1 mL of this diluent to each of the EDTA series broths. This gives a final concentration of 10^6 organism/mL in the EDTA broths.
(§7) Incubate for 18 hours at 37° C.
(§8) Next day visually read the MIC's by observing the turbidity of the broths.
(§9) Plate out 1 uL of each dilution onto fresh blood agar plate and spread using a sterile plastic spreader.
(§10) Incubate overnight at 37° C.
(§11) Next day read the MBC's by performing colony counts.

[9] = test system: S. epidermidis; conditions: two entries; for MBC, minimum concentration required to kill an entire population: Exhibit A1; for MIC, minimum concentration required to inhibit growth: Exhibit A2
Description: as §1, §2, §3, §4, §5, §6, §7, §8, §9, §10, §11

[10] = test system: S. xylosus; conditions: for MBC, minimum concentration required to kill an entire population: Exhibit A1; for MIC, minimum concentration required to inhibit growth: Exhibit A2
Description: as §1, §2, §3, §4, §5, §6, §7, §8, §9, §10, §11

[11] = test system: S. capitis; conditions: two entries; for MBC, minimum concentration required to kill an entire population: Exhibit A1
Description: as §1, §2, §3, §4, §5, §6, §7, §8, §9, §10, §11

[12] = test system: MRSA; conditions: five entries; for MBC, minimum concentration required to kill an entire population: Exhibit A1; for MIC, minimum concentration required to inhibit growth: Exhibit A2
Description: as §1, §2, §3, §4, §5, §6, §7, §8, §9, §10, §11

[13] = test system: Pseudomonas aeruginosa; conditions: two entries; for MBC, minimum concentration required to kill an entire population: Exhibit A1; for MIC, minimum concentration required to inhibit growth: Exhibit A2
Description: as §1, §2, §3, §4, §5, §6, §7, §8, §9, §10, §11

[14] = test system: S. lentus; conditions: for MBC, minimum concentration required to kill an entire population: Exhibit A1; for MIC, minimum concentration required to inhibit growth: Exhibit A2
Description: as §1, §2, §3, §4, §5, §6, §7, §8, §9, §10, §11

[15] = test system: VRE; conditions: two entries; for MBC, minimum concentration required to kill an entire population: Exhibit A1
Description: as §1, §2, §3, §4, §5, §6, §7, §8, §9, §10, §11

[16] = test system: E. coli; conditions: three entries; for MBC, minimum concentration required to kill an entire population: Exhibit A1; for MIC, minimum concentration required to inhibit growth: Exhibit A2
Description: as §1, §2, §3, §4, §5, §6, §7, §8, §9, §10, §11

[17] = test system: Pseudomonas sp.; conditions: for MBC, minimum concentration required to kill an entire population: Exhibit A1; for MIC, minimum concentration required to inhibit growth: Exhibit A2
Description: as §1, §2, §3, §4, §5, §6, §7, §8, §9, §10, §11

[18] = test system: Proteus mirabilis; conditions: two entries; for MBC, minimum concentration required to kill an entire population: Exhibit A1; for MIC, minimum concentration required to inhibit growth: Exhibit A2
Description: as §1, §2, §3, §4, §5, §6, §7, §8, §9, §10, §11

[19] = test system: Kleb. pnemoniae; conditions: two entries; for MBC, minimum concentration required to kill an entire population: Exhibit A1; for MIC, minimum concentration required to inhibit growth: Exhibit A2
Description: as §1, §2, §3, §4, §5, §6, §7, §8, §9, §10, §11

[20] = test system: S. aureus; conditions: five entries; for MBC, minimum concentration required to kill an entire population: Exhibit A1; for MIC, minimum concentration required to inhibit growth: Exhibit A2
Description: as §1, §2, §3, §4, §5, §6, §7, §8, §9, §10, §11

[21] = test system: Ent. faecalis; conditions: for MBC, minimum concentration required to kill an entire population: Exhibit A1; for MIC, minimum concentration required to inhibit growth: Exhibit A2
Description: as §1, §2, §3, §4, §5, §6, §7, §8, §9, §10, §11

[22] = test system: Ent. cloacae; conditions: three entries; for MBC, minimum concentration required to kill an entire population: Exhibit A1; for MIC, minimum concentration required to inhibit growth: Exhibit A2
[23] = test system: Proteus vulgaris; conditions: for MBC, minimum concentration required to kill an entire population: Exhibit A1; for MIC, minimum concentration required to inhibit growth: Exhibit A2

O=C([O-])CN(CCN(CC(=O)[O-])CC(=O)[O-])CC(=O)[O-].[Fe+3].[Na+] [Ferric-sodium salt EDTA]
MIC, minimum concentration required to inhibit growth [1]: 4 mg/mL | MBC, minimum concentration required to kill an entire population [1]: >30 mg/mL | MBC, minimum concentration required to kill an entire population [2]: 10 mg/mL and >15 mg/mL | MBC, minimum concentration required to kill an entire population [3]: >15 mg/mL | MIC, minimum concentration required to inhibit growth [3]: 15 mg/mL | MBC, minimum concentration required to kill an entire population [4]: 10 mg/mL | MIC, minimum concentration required to inhibit growth [4]: 10 mg/mL | MBC, minimum concentration required to kill an entire population [5]: >15 mg/mL | MIC, minimum concentration required to inhibit growth [5]: >15 mg/mL | MBC, minimum concentration required to kill an entire population [6]: 10 mg/mL | MIC, minimum concentration required to inhibit growth [6]: 10 mg/mL | MBC, minimum concentration required to kill an entire population [7]: >15 mg/mL | MIC, minimum concentration required to inhibit growth [7]: 10 mg/mL | MBC, minimum concentration required to kill an entire population [8]: >30 mg/mL | MIC, minimum concentration required to inhibit growth [8]: >20 mg/mL | MBC, minimum concentration required to kill an entire population [9]: >30 mg/mL | MIC, minimum concentration required to inhibit growth [9]: >20 mg/mL | MBC, minimum concentration required to kill an entire population [10]: >30 mg/mL | MIC, minimum concentration required to inhibit growth [10]: >20 mg/mL | MBC, minimum concentration required to kill an entire population [11]: >30 mg/mL | MIC, minimum concentration required to inhibit growth ([11]; Exhibit A2): >20 mg/mL | MBC, minimum concentration required to kill an entire population [12]: >30 mg/mL | MIC, minimum concentration required to inhibit growth [12]: >20 mg/mL | MBC, minimum concentration required to kill an entire population [13]: >15 mg/mL | MIC, minimum concentration required to inhibit growth [13]: 15 mg/mL | MBC, minimum concentration required to kill an entire population [14]: >30 mg/mL | MIC, minimum concentration required to inhibit growth [14]: >20 mg/mL | MBC, minimum concentration required to kill an entire population [15]: >30 mg/mL | MBC, minimum concentration required to kill an entire population [16]: >15 mg/mL | MIC, minimum concentration required to inhibit growth [16]: 15 mg/mL and >15 mg/mL | MBC, minimum concentration required to kill an entire population [17]: >15 mg/mL | MIC, minimum concentration required to inhibit growth [17]: 15 mg/mL | MBC, minimum concentration required to kill an entire population [18]: >15 mg/mL | MIC, minimum concentration required to inhibit growth [18]: >15 mg/mL | MBC, minimum concentration required to kill an entire population [19]: >15 mg/mL | MIC, minimum concentration required to inhibit growth [19]: >15 mg/mL and 15 mg/mL | MBC, minimum concentration required to kill an entire population [20]: >30 mg/mL | MIC, minimum concentration required to inhibit growth [20]: >20 mg/mL | MBC, minimum concentration required to kill an entire population [21]: >30 mg/mL | MIC, minimum concentration required to inhibit growth [21]: 4 mg/mL | MBC, minimum concentration required to kill an entire population [22]: >15 mg/mL | MIC, minimum concentration required to inhibit growth [22]: >15 mg/mL | MBC, minimum concentration required to kill an entire population [23]: >15 mg/mL | MIC, minimum concentration required to inhibit growth [23]: >15 mg/mL

O=C([O-])CN(CCN(CC(=O)[O-])CC(=O)[O-])CC(=O)[O-].[Mg+2].[Na+].[Na+] [Magnesium disodium EDTA]
MIC, minimum concentration required to inhibit growth [1]: 1.5 mg/mL | MBC, minimum concentration required to kill an entire population [1]: >30 mg/mL | MBC, minimum concentration required to kill an entire population [3]: >30 mg/mL | MIC, minimum concentration required to inhibit growth [3]: >30 mg/mL | MBC, minimum concentration required to kill an entire population [4]: 4 mg/mL | MIC, minimum concentration required to inhibit growth [4]: <0.5 mg/mL | MBC, minimum concentration required to kill an entire population [5]: >30 mg/mL | MIC, minimum concentration required to inhibit growth [5]: >30 mg/mL | MBC, minimum concentration required to kill an entire population [6]: 4 mg/mL | MIC, minimum concentration required to inhibit growth [6]: <0.5 mg/mL | MBC, minimum concentration required to kill an entire population [7]: >30 mg/mL | MIC, minimum concentration required to inhibit growth [7]: >30 mg/mL | MBC, minimum concentration required to kill an entire population [8]: >30 mg/mL | MIC, minimum concentration required to inhibit growth [8]: 1.5 mg/mL | MBC, minimum concentration required to kill an entire population [9]: 30 mg/mL | MIC, minimum concentration required to inhibit growth [9]: 6 mg/mL | MBC, minimum concentration required to kill an entire population [10]: >30 mg/mL | MIC, minimum concentration required to inhibit growth [10]: 2 mg/mL | MBC, minimum concentration required to kill an entire population [11]: >30 mg/mL | MBC, minimum concentration required to kill an entire population [12]: >30 mg/mL | MIC, minimum concentration required to inhibit growth [12]: >30 mg/mL | MBC, minimum concentration required to kill an entire population [13]: >30 mg/mL | MIC, minimum concentration required to inhibit growth [13]: >30 mg/mL | MBC, minimum concentration required to kill an entire population [14]: >30 mg/mL | MIC, minimum concentration required to inhibit growth [14]: 6 mg/mL | MBC, minimum concentration required to kill an entire population [15]: >30 mg/mL | MIC, minimum concentration required to inhibit growth ([15]; Exhibit A2): 25 mg/mL and >30 mg/mL | MBC, minimum concentration required to kill an entire population [16]: >30 mg/mL | MIC, minimum concentration required to inhibit growth [16]: >30 mg/mL | MBC, minimum concentration required to kill an entire population [17]: >30 mg/mL | MIC, minimum concentration required to inhibit growth [17]: >30 mg/mL | MBC, minimum concentration required to kill an entire population [18]: >30 mg/mL | MIC, minimum concentration required to inhibit growth [18]: >30 mg/mL | MBC, minimum concentration required to kill an entire population [19]: >30 mg/mL | MIC, minimum concentration required to inhibit growth [19]: >30 mg/mL | MBC, minimum concentration required to kill an entire population [20]: >30 mg/mL | MIC, minimum concentration required to inhibit growth [20]: >30 mg/mL | MBC, minimum concentration required to kill an entire population [21]: >30 mg/mL | MIC, minimum concentration required to inhibit growth [21]: >30 mg/mL | MBC, minimum concentration required to kill an entire population [22]: >30 mg/mL | MIC, minimum concentration required to inhibit growth [22]: >30 mg/mL | MBC, minimum concentration required to kill an entire population [23]: .30 mg/mL | MIC, minimum concentration required to inhibit growth [23]: >30 mg/mL

Reference: US20100316529A1, “Anti-Microbial Systems and Methods” (priority 2001, published 2010)
